Data: patent publication US10449261B2, “Compositions targeting radiation-induced molecules and methods of use thereof” (Washington University, priority 2014, dated 2019)
Entries after “also recorded” stand apart in the source; their conditions may differ. Numbered stars: 1 amine (or outer) side, 2 acyl side, 3 side chain; on linkers, the order of the positions; unused ones are H or OH. Primed or numbered codes have the meaning given here. Ends that are not written are not given here. * marks the point of attachment. K(CHX-A″-DTPA) = O=C(O)CN(CC(=O)O)[C@H](Cc1ccc(NC(=S)NCCCC[C@H](N[*:1])C(=O)[*:2])cc1)CN(CC(=O)O)[C@H]1CCCC[C@@H]1N(CC(=O)O)CC(=O)O; FITC = O=C1OC2(c3ccc(O)cc3Oc3cc(O)ccc32)c2ccc(NC(=S)*)cc21; DTPA = O=C(O)CN(CCN(CC(=O)O)CC(=O)O)CCN(CC(=O)O)CC(=O)*; PEG = not defined here; AEEA = NCCOCCOCC(=O)O

Assays:
[1] = test system: glioblastoma (D54) tumors; experiment: SPECT/CT imaging of tumor models; assay type: in vivo, mice; conditions: right hind limb 3 doses of 3 Gy
From the text: (§1) In addition we also screened lung cancer (A549), pancreatic cancer (BxPC3) and glioblastoma (D54) tumor models for binding of radiolabeled GIRLRG (SEQ ID NO:1) peptide.

[2] = test system: lung cancer (A549) tumors; experiment: SPECT/CT imaging of tumor models; assay type: in vivo, mice; conditions: right hind limb 3 doses of 3 Gy
From the text: as §1

[3] = test system: pancreatic cancer (BxPC3) tumors; experiment: SPECT/CT imaging of tumor models; assay type: in vivo, mice; conditions: right hind limb 3 doses of 3 Gy
From the text: as §1

irradiated A549 tumors = experiment: SPECT imaging and gamma emission of organs and tumors (Example 1); assay type: in vivo, mice; conditions: mice with A549 tumors, 3 Gy
Description: (§2) SPECT images of the spatial and temporal pharmacokinetics of ^111In-labeled PEG-GIRLRG and ^111In-labeled control peptide within irradiated mouse A549 tumors is shown in FIG. 1. At 7 days after administration, gamma emission from each of the organs and tumors of mice injected with PEG-GIRLRG (SEQ ID NO:1) and PEG-control peptide was measured (FIG. 2).

[4] = test system: irradiated mouse A549 tumors; experiment: as above; assay type: in vivo, mice; conditions: A549 tumors, 7 days after administration
Description: as §2

[5] = Size and aggregation of pegylated peptides (dynamic light scattering); assay type: physicochemical
[6] = test system: esophageal (OE33) heterotopic tumors; experiment: NanoSPECT/CT imaging and post-SPECT biodistribution in tumor bearing nude mice; conditions: for tumor uptake, post-SPECT biodistribution, compared to control peptide: OE33 tumor bearing mice, 96 h after injection; for tumor binding by SPECT imaging: OE33 tumors, 48 h and 72 h post injection, 500 μCi via tail vein; for effect of tumor irradiation on tumor binding: OE33, right hind limb 3 fractions of 3 Gy vs sham left
Description: (§7) Nude mice bearing the HT3 and OE33 tumors in both the hind limbs were used (˜1 cm^3). Since radiotherapy is used in treating cervical and esophageal cancers, we also irradiated the tumors. The tumor on the right hind limb was irradiated with 3 fractions of 3 Gy over a course of 24 h, the tumor on the left hind limb was used as sham control. The mice were then injected with 500 μCi (10 μCi/μg) of radiolabeled peptide via tail vein. SPECT/CT imaging was performed at 48 and 72 h post injection.
(§8) Tumor models were established in 6 to 8-week-old female athymic nude mice obtained from Harlan laboratories (USA). Heterotopic tumors were induced by sub-cutaneously injecting tumor cells (1-3×10^6) into hind limbs of athymic nude mice. The tumors were grown until a size of 1 cm^3 before using the mice for SPECT imaging.
(§9) Whole body SPECT images were obtained at 48 and 72 h post injection (p.i.) using a NanoSPECT/CT imager (Bioscan Inc., Washington, D.C., USA) fitted with 2 mm pinhole collimators in helical scanning mode. Mice were placed in prone position and scanned under anesthesia (0.5 L/min 1.5% isoflurane in air). A 45-keV helical CT scan was performed first and then the SPECT acquisition was performed at 24 projections and 60 s per projection, for a total scan time of about 45 min. Tomographic data were reconstructed iteratively with the manufacturer-supplied InVivoScope and HiSPECT software for CT and SPECT, respectively.
(§10) After scanning, 96 h p.i., the bio-distribution of the labelled peptide in various organs was determined. The animals were sacrificed and organs of interest including blood were dissected/collected, weighed, and counted in a gamma counter along with a standard of the injected activity to allow calculation of the injected dose per organ (% ID/organ).

A549 (lung cancer) = experiment: Binding of FITC-conjugated GIRLRG to cancer cells (fluorescent microscope); assay type: cell-based, human; conditions: 10 μg/ml, 2 h, 37° C.
Description: (§3) Four cancer cell lines D54 (glioma), HT3 (cervical), OE33 (eosophageal) and A549 (lung cancer) were used to evaluate binding of GIRLRG (SEQ ID NO:1) peptide. Cancer cells were incubated with FITC-conjugated GIRLRG (SEQ ID NO:1) peptide and fluorescent images were acquired using a fluorescent microscope.
(§4) Cell Lines: Human lung adenocarcinoma A549 and Human glioblastoma D54 cells were cultured in DMEM/F12, human esophageal carcinoma OE33 cells in RPMI and HT3 cells in IMDM media supplemented with 10% fetal bovine serum, penicillin and streptomycin. They were maintained at 37° C. in a 5% CO2 incubator.
(§5) Immunofluorescence: Cancer cells (A549, HT3, D54 and OE33) were grown on chamber slides (Millipore, USA) and incubated with 10 μg/ml FITC-GIRLRG (SEQ ID NO:1) peptide for 2 h at 37° C. in a CO2 incubator. The cells were then washed with PBS to remove unbound peptide and fixed with 4% paraformaldehyde at room temperature. The nuclei were stained with DAPI and fluorescent images were captured using a Carl Zeiss microscope (Tokyo, Japan).

D54 (glioma) = experiment: as above; assay type: cell-based, human; conditions: 10 μg/ml, 2 h, 37° C.
Description: as §3, §4, §5

OE33 (eosophageal) = experiment: as above; assay type: cell-based, human; conditions: 10 μg/ml, 2 h, 37° C.
Description: as §3, §4, §5

HT3 (cervical) = experiment: as above; assay type: cell-based; conditions: 10 μg/ml, 2 h, 37° C.
Description: as §3, §4, §5

[7] = test system: cervical (HT3) heterotopic tumors; conditions: for effect of tumor irradiation on tumor binding: HT3, right hind limb 3 fractions of 3 Gy vs sham left
Description: as §7, §8, §9, §10

brain tumors = experiment: SPECT imaging of 111In-labeled PEG-GIRLRG (Example 1); assay type: in vivo, mouse; conditions: 72 hours following administration, 3 Gy vs 0Gy
Description: (§6) The right hind limb tumor was treated with 3 Gy and left hind limb tumor is an untreated (0Gy) internal control in the same mouse.

cervix tumors = experiment: as above; assay type: in vivo, mouse; conditions: 72 hours following administration, 3 Gy vs 0Gy
Description: as §6

esophageal tumors = experiment: as above; assay type: in vivo, mouse; conditions: 72 hours following administration, 3 Gy vs 0Gy
Description: as §6

cancer = experiment: Optimisation of the peptide construct: circulation and cancer binding; conditions: in vivo
From the text: The GIRLRG (SEQ ID NO:1) peptide conjugated to a poly-lysine linker for DOTA and DTPA conjugation was first studied. […] The duration of tumor binding was improved by PEGylation, with longer circulation times and prolonged imaging in cancer. […] Both PEG20 and PEG40 are effective at enhancing prolonged binding in cancer. […]

[8] = molecular target: T1, recombinant eukaryotic GRP78 protein (Prospec, USA) (UniProt P11021 19-654, limits assumed); experiment: SPR (BIAcore 2000), GRP78 amine-coupled on a CM4 chip, peptide as analyte at 0.313-10 mM, 25 C, HBS-EP
T1 construct: Immobilised by amine coupling on a CM4 chip; also called Glucose-regulated protein 78 kDa; Glucose Regulatory Protein-78
T1 sequence (P11021 19-654 limits assumed): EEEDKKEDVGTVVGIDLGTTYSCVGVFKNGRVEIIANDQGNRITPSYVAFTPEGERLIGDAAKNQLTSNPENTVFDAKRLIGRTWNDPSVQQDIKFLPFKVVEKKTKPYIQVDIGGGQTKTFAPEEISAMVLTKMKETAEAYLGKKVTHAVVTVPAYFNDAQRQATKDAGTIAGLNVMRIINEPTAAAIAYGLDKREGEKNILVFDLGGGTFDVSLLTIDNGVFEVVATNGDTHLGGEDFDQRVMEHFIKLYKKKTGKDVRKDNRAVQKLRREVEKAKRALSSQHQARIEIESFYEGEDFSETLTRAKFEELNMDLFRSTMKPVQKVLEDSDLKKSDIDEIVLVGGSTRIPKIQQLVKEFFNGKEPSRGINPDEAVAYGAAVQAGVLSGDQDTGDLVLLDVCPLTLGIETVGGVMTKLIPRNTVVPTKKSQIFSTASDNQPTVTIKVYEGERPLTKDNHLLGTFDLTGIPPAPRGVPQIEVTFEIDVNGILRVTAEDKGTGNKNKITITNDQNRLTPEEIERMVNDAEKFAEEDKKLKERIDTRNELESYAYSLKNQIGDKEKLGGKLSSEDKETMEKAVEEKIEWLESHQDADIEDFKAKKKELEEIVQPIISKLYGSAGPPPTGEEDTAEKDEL
Description: To determine the binding affinity of GIRLRG (SEQ ID NO:1) peptide to GRP78 protein, we used surface plasmon resonance technology. GRP78 protein was immobilized on the surface of CM4 sensor chip and approximately 7000 resonance Units (RUs) of GRP78 protein were immobilized (FIG. 6A). The GIRLRG (SEQ ID NO:1) peptide was dissolved in HBS-EP buffer at various concentrations (10, 5, 2.5, 1.25 and 0.313 mM) and passed over the immobilized GRP78 for 2 min (FIG. 6B). The rate constant K_D was obtained by fitting the sensogram data after reference subtraction (data from blank channel) using the BIA evaluation 3.0 software.
Surface Plasmon Resonance (SPR): Affinity of GIRLRG (SEQ ID NO:1) to GRP78 protein was measured by the biosensor-based SPR technique using an automatic apparatus BIAcore 2000 (GE healthcare, Sweden) as described earlier. The recombinant eukaryotic GRP78 protein (Prospec, USA) as ligand that was immobilized by amine coupling on the CM4 sensor surface and GIRLRG (SEQ ID NO:1) peptide was used as the analyte. Experiments were performed at 25° C. in HBS-EP buffer (GE healthcare). GRP78 protein was immobolized using surface preparation wizard for amine coupling. […] The affinity of the interaction was determined from the level of binding at equilibrium as a function of the sample concentrations by BIA evaluation software 3.0.

In the case of “mPEG40K-carbonyl-Lys(CHX-A″-DTPA)-AEEAc-Lys(CHX-A″-DTPA)-AEEAc-Trp-Lys(CHX-A″-DTPA)-AEEAc-GIRLRG ({mPEG40K‑carbonyl-K(CHX-A″-DTPA)-AEEA-K(CHX-A″-DTPA)-AEEA-Trp-K(CHX-A″-DTPA)-AEEA}-GIRLRG) [PEG-GIRLRG]”, the “tumor binding by SPECT/CT imaging” value [1] is reported as “specific binding; also recorded: Enhanced tumor binding”, the “tumor binding by SPECT/CT imaging” value [2] is reported as “specific binding; also recorded: Enhanced tumor binding” and the “tumor binding by SPECT/CT imaging” value [3] is reported as “specific binding; also recorded: Enhanced tumor binding”. The “binding to irradiated normal tissue” value (irradiated A549 tumors) was “did not bind to irradiated normal tissue”, the “tumor binding (gamma emission from organs and tumors)” value [4] was “selectively bound to tumors” and the size [5] was 8 nm. For the same molecule, the aggregation ([5]; after heating / radiolabeling conditions) was “did not aggregate even after heating”, the “tumor uptake, post-SPECT biodistribution, compared to control peptide” value [6] was “Significantly higher uptake” and the “tumor binding by SPECT imaging” value [6] was “specifically bound; also recorded: Enhanced tumor binding”.

For “FITC-GIRLRG: FITC-conjugated GIRLRG peptide ({FITC}-GIRLRG)”, the “binding to cancer cells” value (A549 (lung cancer)) was “specifically bound”, the “binding to cancer cells” value (A549 (lung cancer); listed as FITC labeled GIRLRG) was “showed binding” and the “binding to cancer cells” value (D54 (glioma)) was “specifically bound”. The “binding to cancer cells” value (D54 (glioma); listed as FITC labeled GIRLRG) was “showed binding”, the “binding to cancer cells” value (OE33 (eosophageal)) was “specifically bound” and the “binding to cancer cells” value (OE33 (eosophageal); listed as FITC labeled GIRLRG) was “showed binding”. For the same molecule, the “binding to cancer cells” value (HT3 (cervical)) was “specifically bound” and the “binding to cancer cells” value (HT3 (cervical); listed as FITC labeled GIRLRG) was “showed binding”.

For GIRLRG [GIRLRG], the “effect of tumor irradiation on tumor binding” value (shortened to “effect of tumor irradiation”) [7] was “did not interfere with specific binding” and the “effect of tumor irradiation” value [6] was “did not interfere with specific binding”.

For “^111In-labeled PEG-DTPA-GIRLRG: PEG-GIRLRG radiolabeled with ^111Indium by use of DTPA as the chelator ({PEG-DTPA}-GIRLRG; reading uncertain; also: radiolabeled with 111In chelated by DTPA)”, the “tumor binding by SPECT/CT imaging” value [1] was “enhanced binding”, the “tumor binding by SPECT/CT imaging” value [2] was “enhanced binding” and the “tumor binding by SPECT/CT imaging” value [3] was “enhanced binding”. For the same molecule, the cancer selective binding (brain tumors) was “cancer selective binding”, the cancer selective binding (cervix tumors) was “cancer selective binding” and the cancer selective binding (esophageal tumors) was “cancer selective binding”. The cancer binding (cancer) was “binds within irradiated cancers”, the “effect of tumor irradiation” value [7] was “did not affect tumor binding” and the “tumor binding by SPECT imaging” value ([7]; HT3 tumors, 48 h and 72 h post injection, 500 μCi via tail vein) was “bound”. For the same molecule, the “effect of tumor irradiation” value [6] was “did not affect tumor binding”, the “tumor uptake, post-SPECT biodistribution, compared to control peptide” value [6] was “Significantly higher (p<0.001) uptake” and the “tumor binding by SPECT imaging” value [6] was “bound”.

B1: GIRLRG (SEQ ID NO:1) peptide (peptide)
peptide: GIRLRG
notes: Unconjugated synthetic hexapeptide, used as the analyte in SPR and as the ligand in the molecular model; also called lead peptide
B1 showed a Kd [8] of 2160 µM.
